According to patent US20040082635A1, “Fused cyclic compounds and medicinal use thereof” (priority 2001, published 2004):
Structures can show the parent of a compound that is named as a salt.

How the values were obtained:
[1] = blood concentration when administered to an animal (statement only, no method); assay type: in vivo; conditions: when administered as a pharmaceutical agent to an animal; in words
HCV type 1b = test: inhibitory activity on HCV type 1b (statement only, no method); conditions: in words
HCV type 1a = test: inhibitory activity on HCV type 1a (statement only, no method); conditions: in words
HCV polymerase = biological target: T1, HCV polymerase (Hepatitis C virus genotype 1b, UniProt P26663); test: biochemical; conditions: read-out: HCV polymerase inhibitory activity IC50
T1 construct: a region encoding NS5B (591 amino acids; J Virol 1991 Mar, 65(3), 1105-13) was amplified by PCR; 6 His (N); made in house; host or cells: Escherichia coli
T1 sequence (P26663 2420-3010): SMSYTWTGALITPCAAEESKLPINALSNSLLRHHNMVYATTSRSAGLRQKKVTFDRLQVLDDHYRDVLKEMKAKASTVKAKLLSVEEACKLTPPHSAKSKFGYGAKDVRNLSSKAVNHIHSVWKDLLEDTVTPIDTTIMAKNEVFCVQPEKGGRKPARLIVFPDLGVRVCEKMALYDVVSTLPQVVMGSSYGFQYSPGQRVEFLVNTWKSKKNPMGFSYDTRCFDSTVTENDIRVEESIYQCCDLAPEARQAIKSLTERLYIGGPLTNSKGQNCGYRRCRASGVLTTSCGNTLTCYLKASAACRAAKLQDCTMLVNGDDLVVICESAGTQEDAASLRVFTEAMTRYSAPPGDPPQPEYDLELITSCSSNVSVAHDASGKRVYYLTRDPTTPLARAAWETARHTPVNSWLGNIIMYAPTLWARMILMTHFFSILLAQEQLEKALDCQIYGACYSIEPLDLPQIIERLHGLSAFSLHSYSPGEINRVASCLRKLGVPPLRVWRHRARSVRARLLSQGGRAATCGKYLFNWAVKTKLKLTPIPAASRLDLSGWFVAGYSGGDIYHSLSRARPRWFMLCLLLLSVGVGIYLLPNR

Work on NC(=O)c1ccc2c(c1)nc(-c1ccc(OCc3ccccc3)cc1)n2C1CCCC1 yielded a melting point of 232 to 233 °C.

Work on Cl.O=C(O)c1ccc2c(c1)nc(-c1ccc(OCc3cc(N4CCCC4=O)ccc3-c3ccc(Cl)cc3)cc1F)n2C1CCCCC1 yielded a melting point of 243 to 246 °C.

With Cl.O=C(O)c1ccc2c(c1)nc(-c1ccc(OCc3cc(N4CCCC4=O)ccc3-c3ccc(Cl)cc3)cc1F)n2C1CCCCC1 [2-{4-[2-(4-chlorophenyl)-5-(2-oxopyrrolidin-1-yl)benzyloxy]-2-fluorophenyl}-1-cyclohexylbenzimidazole-5-carboxylic acid hydrochloride] the blood concentration [1] was “high blood concentration”, the “inhibitory activity on HCV type 1b” value (HCV type 1b) was “high inhibitory activity” and the “inhibitory activity on HCV type 1a” value (HCV type 1a) was “high inhibitory activity”.

With O=C(O)c1ccc2c(c1)nc(-c1ccc(Oc3cccc(Br)c3)cc1)n2C1CCCCC1 [Example 2, 2-[4-(3-bromophenoxy)phenyl]-1-cyclohexylbenzimidazole-5-carboxylic acid] the melting point was 255 to 256 °C and the IC50 (HCV polymerase) was 0.079 µM.

Compound O=C(O)c1ccc2c(c1)nc(-c1ccc(OCc3cc(Cl)ccc3-c3ccc(Cl)cc3)cc1)n2C1CCCCC1 [Example 6] has a melting point of 243 to 244 °C.

For COc1ccc(-c2ccc(Cl)cc2)c(COc2ccc(-c3nc4cc(C(=O)O)ccc4n3C3CCCCC3)cc2)c1 [Example 9, 2-{4-[2-(4-chlorophenyl)-5-methoxybenzyloxy]phenyl}-1-cyclohexylbenzimidazole-5-carboxylic acid], the melting point was 248 to 249 °C and the IC50 (HCV polymerase) was 0.019 µM.

Compound Cc1nc(-c2ccc(F)cc2)c(COc2ccc(-c3nc4cc(C(=O)O)ccc4n3C3CCCCC3)cc2)s1 [Example 17, 1-cyclohexyl-2-{4-[{4-(4-fluorophenyl)-2-methyl-5-thiazolyl}methoxy]phenyl}benzimidazole-5-carboxylic acid] has a melting point of 196 to 198 °C and an IC50 (HCV polymerase) of 0.047 µM.

With O=C(O)c1ccc2c(c1)nc(-c1ccc(OC(c3cccc(F)c3)c3cccc(F)c3)cc1F)n2C1CCCCC1 [Example 20, 2-{4-(bis[3-fluorophenyl]methoxy)-2-fluorophenyl}-1-cyclohexylbenzimidazole-5-carboxylic acid] the melting point was 242 to 243 °C and the IC50 (HCV polymerase) was 0.042 µM.

Work on O=C(O)c1ccc2c(c1)nc(-c1ccc(Oc3cccc(-c4cccc(Cl)c4)c3)cc1)n2C1CCCCC1 [Example 26, 2-{4-[3-(3-chlorophenyl)phenoxy]phenyl}-1-cyclohexylbenzimidazole-5-carboxylic acid] yielded a melting point of 253 to 254 °C and an IC50 (HCV polymerase) of 0.033 µM.

In the case of O=C(O)c1ccc2c(c1)nc(-c1ccc(Oc3cccc(OCc4ccncc4)c3)cc1)n2C1CCCCC1 [Example 30, 1-cyclohexyl-2-{4-[3-(4-pyridylmethoxy)phenyloxy]-phenyl}benzimidazole-5-carboxylic acid], the melting point is reported as 235 to 237 °C and the IC50 (HCV polymerase) is reported as 0.052 µM.

CCN(c1ccc(-c2ccc(Cl)cc2)c(COc2ccc(-c3nc4cc(C(=O)O)ccc4n3C3CCCCC3)c(F)c2)c1)S(=O)(=O)CC [Example 465, 2-[4-{2-(4-chlorophenyl)-5-[N-ethyl-N-(ethylsulfonyl)amino]-benzyloxy}-2-fluorophenyl]-1-cyclohexylbenzimidazole-5-carboxylic acid hydrochloride] showed an IC50 (HCV polymerase) of 0.033 µM.

For CCC(=O)N(C)c1ccc(-c2ccc(Cl)cc2)c(COc2ccc(-c3nc4cc(C(=O)O)ccc4n3C3CCCCC3)c(F)c2)c1 [Example 466, 2-[4-{2-(4-chlorophenyl)-5-[N-(ethylcarbonyl)-N-methylamino]-benzyloxy}-2-fluorophenyl]-1-cyclohexylbenzimidazole-5-carboxylic acid hydrochloride], the IC50 (HCV polymerase) was 0.023 µM.

In the case of CCC(=O)N(CC)c1ccc(-c2ccc(Cl)cc2)c(COc2ccc(-c3nc4cc(C(=O)O)ccc4n3C3CCCCC3)c(F)c2)c1 [Example 467, 2-[4-{2-(4-chlorophenyl)-5-[N-ethyl-N-(ethylcarbonyl)amino]-benzyloxy}-2-fluorophenyl]-1-cyclohexylbenzimidazole-5-carboxylic acid hydrochloride], the IC50 (HCV polymerase) is reported as 0.032 µM.

With COc1ccc(-c2ccc(Cl)cc2)c(COc2ccc(-c3nc4cc(C(=O)O)ccc4n3C3CCCCC3)c(F)c2)c1 [Example 468, 2-[4-{2-(4-chlorophenyl)-5-methoxybenzyloxy}-2-fluorophenyl]-1-cyclohexylbenzimidazole-5-carboxylic acid] the IC50 (HCV polymerase) was 0.028 µM.

CC(=O)N(c1ccc(-c2ccc(Cl)cc2)c(COc2ccc(-c3nc4cc(C(=O)O)ccc4n3C3CCCCC3)c(F)c2)c1)C(C)C [Example 469, 2-[4-{2-(4-chlorophenyl)-5-(N-acetyl-N-isopropylamino)-benzyloxy}-2-fluorophenyl]-1-cyclohexylbenzimidazole-5-carboxylic acid hydrochloride] showed an IC50 (HCV polymerase) of 0.024 µM.

COc1ccc(-c2ccc(Cl)cc2)c(COc2ccc(-c3cc4cc(C(=O)O)ccc4n3C3CCCCC3)cc2)c1 [Example 502, 2-{4-[2-(4-chlorophenyl)-5-methoxybenzyloxy]phenyl}-1-cyclohexyl-1H-indole-5-carboxylate acid] showed an IC50 (HCV polymerase) of 0.024 µM.

With O=C(O)c1ccc2c(c1)cc(-c1ccc(OCc3ccccc3)cc1)n2C1CCCC1 [Example 503, 2-(4-benzyloxyphenyl)-1-cyclopentyl-1H-indole-5-carboxylic acid] the IC50 (HCV polymerase) was 0.196 µM.

In the case of CCOC(=O)c1ccn2c(C3CCCCC3)c(-c3ccc(OCc4ccccc4)cc3)nc2c1 [Example 601, ethyl 2-(4-benzyloxyphenyl)-3-cyclohexylimidazo-[1,2-a]pyridine-7-carboxylate], the IC50 (HCV polymerase) is reported as 0.32 µM.

For COc1ccc(-c2ccc(Cl)cc2)c(COc2ccc(-c3nc4cc(C(=O)O)cnc4n3C3CCCCC3)cc2)c1 [Example 701, 2-{4-[2-(4-chlorophenyl)-5-methoxybenzyloxy]phenyl}-3-cyclohexyl-3H-imidazo[4,5-b]pyridine-6-carboxylic acid], the IC50 (HCV polymerase) was 0.052 µM.
